Test results reported in publication PMC7892475, “C-Terminal Amination of a Cationic Anti-Inflammatory Peptide Improves Bioavailability and Inhibitory Activity Against LPS-Induced Inflammation” (Frontiers in Immunology, 2021).

Assays:
[1] = tested on: LPS-induced sepsis in C57/BL6 mice; assay: LPS-induced murine model of sepsis; assay type: in vivo, mouse
Protocol: Male C57/BL6 mice (6–8 weeks of age) were purchased from Charles River (Beijing, China). The mice were maintained in a specific-pathogen-free (SPF) environment at 22 ± 1°C with relative 55 ± 10% humidity during the experiments. The assays were performed in conformity with the laws and regulations for live animal treatments at China Agricultural University.
The mice were randomly distributed into three groups (n = 12 each): control, LPS (E. coli, O111:B4, Sigma-Aldrich, USA) treatment, and CTP-NH2 pretreatment followed by LPS treatment (CTP-NH2 + LPS). For the first 7 days, CTP-NH2 (10 mg/kg mouse weight) was injected intraperitoneally once daily. Meanwhile, an equal volume of sterile saline was injected into mice in the control and LPS-treated groups. On day 7, LPS (10 mg/kg mouse weight) was injected intraperitoneally into mice in the LPS and CTP-NH2 + LPS groups to establish the sepsis animal model. The control group was intraperitoneally injected with an equal volume of saline. Sixteen hours after the LPS injection, the mice were euthanized by cervical dislocation, and samples of the […] were collected for analysis.
The mouse liver tissues were fixed in 4% paraformaldehyde, embedded in paraffin and cut into 5-μm-thick sections using an RM2235 microtome (Leica, Germany). The sections were stained with hematoxylin-eosin (H&E), and a DM3000 microscope was used to acquire images. LPS-induced liver injury was evaluated according to the following four categories: […]. The liver injury score was graded on a 0- to 4-point scale: 0, no injury; 1, up to 25% injury in the field; 2, up to 50% injury in the field; 3, up to 75% injury in the field; 4, diffuse injury ([43]).
For immunohistochemical analysis, the sections were blocked with PBS containing 1% w/v BSA for 1 h at room temperature. Afterwards, the sections were incubated with anti-CD177^+ antibody (1:100; Santa, USA). Samples were washed with PBS followed by incubation with horse-radish peroxidase (HRP)-conjugated rabbit anti-goat IgG (1:100; JIR, USA) at 4°C for 1 h. Subsequently, slides were stained with 3,3’-diaminobenzidine (DAB; DAKO, USA) and then counterstained with Harris hematoxylin. Finally, the samples were dehydrated in an alcohol gradient (70-100%) and cleared in xylene. All slides were mounted in neutral balsam.
The levels of tumor necrosis factor (TNF)-α, interleukin (IL)-6, and IL-1β in cell culture supernatants and the levels of TNF-α, IL-6, and IL-1β in the serum of mice were detected using commercial ELISA kits (eBioscience, San Diego, USA) according to the manufacturer’s instructions. The levels of serum alanine amino transferase (ALT) and aspartate amino transferase (AST) were detected using commercial reagent kits (Nanjing Jiancheng Bioengineering Institute, Nanjing, China). The activity of myeloperoxidase (MPO) in the liver of mice was detected using an ELISA kit (Boster, Wuhan, China) according to the manufacturer’s instructions.

[2] = tested on: NF-κB signaling pathway in LPS-treated RAW264.7 cells; assay: Western blotting of the NF-κB signaling pathway; assay type: cell-based, mouse; conditions: 100 ng/ml LPS 1 h, wash, CTP-NH2 3 h, western blot
Protocol: RAW264.7 cells plated at a density 1.8 × 10^6 cells/ml were incubated with LPS (100 ng/ml) at 37°C for 1 h. After that, the cells were washed extensively with PBS before being treated with CTP-NH2 for 3 h at 37°C, followed by lysis of the cells. Cytoplasmic and nuclear protein fractions were obtained using NR-PER Nuclear and Cytoplasmic Extraction Reagents (Thermo Fisher Scientific Inc., New Zwaland). The protein concentrations were assessed with a […] (KeyGEN Biotech. Nanjing, China) according to the manufacturer’s instructions. Afterwards, total protein (40 μg protein/lane) was separated on 10% SDS-PAGE gels and then transferred to PVDF membranes (Bio-Rad). Next, the membranes were blocked with 5% non-fat dried-milk containing 0.05% TBST and then immunoblotted with specific primary antibodies against IKK-β, p-IKK-β, IкB-α, p-IкB-α, NF-кB (p65), p-NF-кB (p-p65), and β-actin (Santa Cruz, CA, USA). After being washed with TBST, the membranes were incubated with HRP-conjugated secondary antibodies (HuaAn, Hangzhou, China). A ChemiDoc MP Imaging System (Bio-Rad, Hercules, CA, USA) was used to quantify the density of the specific proteins.

RWGRFLRKIRRFRRKDVT-NH2 [CTP-NH2, C-terminal amidated derivative peptide of CTP]
liver MPO activity ([1]; ELISA, 10 mg/kg i.p. pretreatment, LPS 10 mg/kg i.p., vs LPS-treated mice): significantly reduced this effect
infiltration of CD177+ neutrophils into the liver ([1]; immunohistochemistry, 10 mg/kg i.p. pretreatment, LPS 10 mg/kg i.p., vs LPS-treated group): significantly lower
serum TNF-α, IL-6 and IL-1β levels ([1]; male C57/BL6 mice, 10 mg/kg i.p. once daily 7 days (Figure 8 legend: 6 days), then LPS 10 mg/kg i.p., 16 h, ELISA, vs LPS-treated group): significantly decreased levels of TNF-α
severity of liver injury (H&E, liver injury score) ([1]; male C57/BL6 mice, 10 mg/kg i.p. once daily pretreatment, LPS 10 mg/kg i.p., score 0 to 4): attenuated
serum ALT and AST ([1]; male C57/BL6 mice, 10 mg/kg i.p. once daily pretreatment, LPS 10 mg/kg i.p., vs LPS-treated group): significantly attenuated these effects
phosphorylation of IKK-β, IκB-α and NF-κB [2]: dampened levels of IKK-β
